This is an account of results in patent publication US12332198B2, “Metabolite based diagnostics for periprosthetic joint infection” (priority 2022, dated 2025).

Several values for one entry are separate records, joined by “and”; a condition that tells them apart may be missing. Equal values may be shown once. Entries after “also recorded” stand apart in the source; their conditions may differ.

For one series, the system named is P. aeruginosa PAO1. Kind of series: Microtiter plate assay: planktonic growth (OD600) and crystal violet staining of biofilm (OD590). It counts as cell-based, Pseudomonas aeruginosa. As for the experimental part: Cadaverine (Sigma Aldrich) 5- or 10-mM stocks were prepared in LB and sterile filtered with a […] filter. […] […] Outer edge wells were filled with PBS to avoid “edge effects” due to evaporation. OD600 was measured to quantify planktonic growth. Liquid media was gently aspirated, and wells were washed three times with 150 μL PBS. Adhered biofilm was stained with 125 μL of 0.1% crystal violet (CV) in 20% ethanol in ddH2O (v/v) for 30 min. CV was gently aspirated, wells were washed five times with 150 μL PBS, and CV was solubilized with 150 μL 33% glacial acetic acid in ddH2O (v/v) by shaking gently at 100 rpm at room temperature for 25 min. CV was quantified at OD590 to report biofilm accumulation. LB blanks were averaged and subtracted from readings. Control PAO1 wells were averaged, and all measurements were normalized to control measurements per plate and reported as percent change from control.

The subject of series [1] is P. aeruginosa PAO1 biofilm. Kind of series: Confocal laser scanning microscopy (CLSM) of biofilm accumulation. It counts as cell-based, Pseudomonas aeruginosa. Particulars: 3.30 mM cadaverine, 24 hrs, SYTO 9, n=5. As for the experimental part: PAO1 overnight cultures were diluted to OD600=0.17 in LB with 0 or 3.30 mM cadaverine in 35×10 mm confocal dishes and incubated statically at 37° C. in 5% CO2 for 24 hrs. Liquid media was aspirated and adhered biofilm was stained with SYTO 9 for 10 min and washed with PBS. CLSM stitched images were collected (n=5) with a laser power of 4.5% under 10× magnification using an Olympus FluoView FV10i CLSM. Mean gray scale value and surface area coverage were quantified using Fiji.

In another series the test system is PAO1 Td-tomato or Xen41. Kind of series: Culture imaging by photo, dissecting microscope and IVIS (biofilm morphology). It counts as cell-based, Pseudomonas aeruginosa. Particulars: 3.30 mM cadaverine. As for the experimental part:
PAO1 Td-tomato or Xen41 cultures were grown similarly to CLSM cultures described above. iPhone 8 images were taken in a controlled well-lit environment. The air-liquid interface was imaged using an Amscope dissecting microscope with an MU500 camera. Xen41 light emission was detected with an IVIS Lumina II system (Caliper LifeSciences) as an indicator of biofilm activity.

Another series concerns rats. The settings on record: 2,000 mg/kg body weight in rats; cited from earlier work.
For the next series, the system named is HT29 intestinal cells. Particulars: up to 70 mM in HT29 intestinal cells; cited from earlier work.
The test system of the next series is P. aeruginosa. Particulars: previous studies; cited from earlier work.
[2] abbreviates: PAO1 Td-tomato, cadaverine 24 hrs.
Setting [3] is: pre-formed biofilm: grown 24 hrs, then cadaverine for additional 24 hrs.

`NCCCCCN` [Cadaverine]: in the series with P. aeruginosa PAO1 (OD600, 0-3.30 mM cadaverine), the “bactericidal or bacteriostatic effect” value is reported as “not bactericidal; also recorded: did not have a bactericidal or bacteriostatic effect”. In addition, the “biofilm accumulation decrease (crystal violet OD590), percent change from control” value in the series with P. aeruginosa PAO1 (setting [2]) is 37%; in the series on P. aeruginosa PAO1 (setting [3]) it was 39.8±2.5% and 40%. Besides, the “planktonic growth increase (OD600), percent change from control” value in the series with P. aeruginosa PAO1 (setting [2]) is 4%; in the series with P. aeruginosa PAO1 (WT PAO1, 0-3.30 mM cadaverine from initiation, 24 hrs, maximal (3.30 mM)) it was 20.5±4.2% and 21%; with P. aeruginosa PAO1 (setting [3]) it was 5.8±1.8% and 6%. In addition, the “biofilm accumulation (crystal violet OD590) at low concentration” value in the series on P. aeruginosa PAO1 (WT PAO1, 25 μM cadaverine, 24 hrs) is on record as “increased marginally”. In addition, in series [1], the “reduction in biofilm accumulation by mean grayscale value” is 54.5±26.0% and 55%. Also, the “reduction in biofilm accumulation by surface area coverage” value in series [1] is 79.8±55.1% and 80%. Moreover, the biofilm morphology entry in the series on PAO1 Td-tomato or Xen41 (24 hrs, standing liquid culture, PAO1 Td-tomato) was “more aggregate-like, in a pellicle”. Besides, the “metabolic state of pellicle biofilm (IVIS luminescence)” value with PAO1 Td-tomato or Xen41 (PAO1 Xen41, air-liquid interface) is “metabolically active”. In addition, the acute oral toxicity result with rats is listed as “low acute oral toxicity”. Moreover, the cytotoxicity result with HT29 intestinal cells is given as “negligible cytotoxicity”. Further, the “effect on effectiveness of β-lactams” value in the series with P. aeruginosa is “enhances the effectiveness of many β-lactams”.
